According to patent US11613522B2, “Herbicidally active 3-phenylisoxazoline-5-carboxamides of tetrahydro- and dihydrofurancarboxamides” (BAYER AKTIENGESELLSCHAFT, priority 2017, dated 2023):

Experiments:
Assay type in all cases: in vivo
[1] = tested on: Alopecurus myosuroides; assay: Pre-emergence herbicidal activity against ALOMY; conditions: dosage 80 g/ha, scored visually after about 3 weeks vs untreated controls
Source text: (§1) 1. Pre-emergence herbicidal action against harmful plants and crop plant compatibility Seeds of monocotyledonous and dicotyledonous weed plants and crop plants are placed in plastic or wood fiber pots and covered with soil. The compounds of the invention, formulated in the form of wettable powders (WP) or as emulsion concentrates (EC), are then applied onto the surface of the covering soil as aqueous suspension or emulsion with addition of 0.5% additive at a water application rate of 600 l/ha (converted). After the treatment, the pots are placed in a greenhouse and kept under good growth conditions for the trial plants. After about 3 weeks, the effect of the preparations is scored visually in comparison with untreated controls as percentages. For example, 100% activity=the plants have died, 0% activity=like control plants. [table]

[2] = tested on: Polygonum convolvulus; assay: Pre-emergence herbicidal activity against POLCO; conditions: dosage 80 g/ha, scored visually after about 3 weeks vs untreated controls
Source text: as §1

[3] = tested on: Stellaria media; assay: Pre-emergence herbicidal activity against STEME; conditions: dosage 80 g/ha, scored visually after about 3 weeks vs untreated controls
Source text: as §1

[4] = tested on: Viola tricolor; assay: Post-emergence herbicidal activity against VIOTR; conditions: dosage 320 g/ha, rated visually after about 3 weeks
Procedure: (§2) [table] Seeds of monocotyledonous and dicotyledonous weeds and crop plants are placed in sandy loam in plastic or wood-fiber pots, covered with soil and cultivated in a greenhouse under controlled growth conditions. 2 to 3 weeks after sowing, the test plants are treated at the one-leaf stage. The compounds of the invention, formulated in the form of wettable powders (WP) or as emulsion concentrates (EC), are then sprayed onto the green parts of the plants as aqueous suspension or emulsion with addition of 0.5% additive at a water application rate of 600 l/ha (converted). After the test plants had been kept in the greenhouse under optimum growth conditions for about 3 weeks, the activity of the preparations is rated visually in comparison to untreated controls. For example, 100% activity=the plants have died, 0% activity=like control plants.

[5] = tested on: Abutilon theophrasti; assay: Post-emergence herbicidal activity against ABUTH; conditions: dosage 320 g/ha, rated visually after about 3 weeks
Procedure: as §2

[6] = tested on: Hordeum murinum; assay: Post-emergence herbicidal activity against HORMU; conditions: dosage 320 g/ha, rated visually after about 3 weeks
Procedure: as §2

[7] = tested on: Polygonum convolvulus; assay: Post-emergence herbicidal activity against POLCO; conditions: dosage 320 g/ha, rated visually after about 3 weeks
Procedure: as §2

[8] = tested on: Stellaria media; assay: Post-emergence herbicidal activity against STEME; conditions: dosage 320 g/ha, rated visually after about 3 weeks
Procedure: as §2

[9] = tested on: Setaria viridis; assay: Pre-emergence herbicidal activity against SETVI; conditions: dosage 80 g/ha, scored visually after about 3 weeks vs untreated controls
Source text: as §1

[10] = tested on: Pharbitis purpurea; assay: Post-emergence herbicidal activity against PHBPU; conditions: dosage 320 g/ha, rated visually after about 3 weeks
Procedure: as §2

[11] = tested on: Alopecurus myosuroides; assay: Post-emergence herbicidal activity against ALOMY; conditions: dosage 320 g/ha, rated visually after about 3 weeks
Procedure: as §2

[12] = tested on: Echinochloa crus-galli; assay: Pre-emergence herbicidal activity against ECHCG; conditions: dosage 80 g/ha, scored visually after about 3 weeks vs untreated controls
Source text: as §1

[13] = tested on: Amaranthus retroflexus; assay: Pre-emergence herbicidal activity against AMARE; conditions: dosage 80 g/ha, scored visually after about 3 weeks vs untreated controls
Source text: as §1

[14] = tested on: Veronica persica; assay: Post-emergence herbicidal activity against VERPE; conditions: dosage 320 g/ha, rated visually after about 3 weeks
Procedure: as §2

[15] = tested on: Lolium rigidum; assay: Post-emergence herbicidal activity against LOLRI; conditions: dosage 320 g/ha, rated visually after about 3 weeks
Procedure: as §2

[16] = tested on: Echinochloa crus-galli; assay: Post-emergence herbicidal activity against ECHCG; conditions: dosage 320 g/ha, rated visually after about 3 weeks
Procedure: as §2

[17] = tested on: Avena fatua; assay: Post-emergence herbicidal activity against AVEFA; conditions: dosage 320 g/ha, rated visually after about 3 weeks
Procedure: as §2

[18] = tested on: Setaria viridis; assay: Post-emergence herbicidal activity against SETVI; conditions: dosage 320 g/ha, rated visually after about 3 weeks
Procedure: as §2

[19] = tested on: Hordeum murinum; assay: Pre-emergence herbicidal activity against HORMU; conditions: dosage 80 g/ha
Source text: as §1

[20] = tested on: Pharbitis purpurea; assay: Pre-emergence herbicidal activity against PHBPU; conditions: dosage 80 g/ha, scored visually after about 3 weeks vs untreated controls
Source text: as §1

[21] = tested on: Viola tricolor; assay: Pre-emergence herbicidal activity against VIOTR; conditions: dosage 80 g/ha, scored visually after about 3 weeks vs untreated controls
Source text: as §1

[22] = tested on: Avena fatua; assay: Pre-emergence herbicidal activity against AVEFA; conditions: dosage 80 g/ha, scored visually after about 3 weeks vs untreated controls
Source text: as §1

[23] = tested on: Veronica persica; assay: Pre-emergence herbicidal activity against VERPE; conditions: dosage 80 g/ha
Source text: as §1

[24] = tested on: Lolium rigidum; assay: Pre-emergence herbicidal activity against LOLRI; conditions: dosage 80 g/ha, scored visually after about 3 weeks vs untreated controls
Source text: as §1

[25] = tested on: Amaranthus retroflexus; assay: Post-emergence herbicidal activity against AMARE; conditions: dosage 320 g/ha, rated visually after about 3 weeks
Procedure: as §2

| SMILES | Pre-emergence herbicidal activity in % against ALOMY [1] [%] | Pre-emergence herbicidal activity in % against POLCO [2] [%] | Pre-emergence herbicidal activity in % against STEME [3] [%] | Post-emergence herbicidal activity in % against ABUTH [5] [%] | Post-emergence herbicidal activity in % against HORMU [6] [%] | Post-emergence herbicidal activity in % against POLCO [7] [%] | Post-emergence herbicidal activity in % against STEME [8] [%] | Pre-emergence herbicidal activity in % against SETVI [9] [%] | Post-emergence herbicidal activity in % against PHBPU [10] [%] | Post-emergence herbicidal activity in % against ALOMY [11] [%] | Pre-emergence herbicidal activity in % against ECHCG [12] [%] | Pre-emergence herbicidal activity in % against AMARE [13] [%] | Post-emergence herbicidal activity in % against VERPE [14] [%] | Post-emergence herbicidal activity in % against LOLRI [15] [%] | Post-emergence herbicidal activity in % against AVEFA [17] [%] | Post-emergence herbicidal activity in % against SETVI [18] [%] | Pre-emergence herbicidal activity in % against PHBPU [20] [%] | Pre-emergence herbicidal activity in % against VIOTR [21] [%] | Pre-emergence herbicidal activity in % against AVEVA (AVEFA) [22] [%] | Pre-emergence herbicidal activity in % against VERPE [23] [%] | further results |
| --- | --- | --- | --- | --- | --- | --- | --- | --- | --- | --- | --- | --- | --- | --- | --- | --- | --- | --- | --- | --- | --- |
| C=C[C@]1(C(=O)N[C@@H]2CO[C@H](C(=O)NCC(=O)OC)C2)CC(c2cc(F)cc(F)c2)=NO1 [Example I-21] | 100 | 100 | 90 | 90 | 100 | 90 | 90 | 100 | 90 | 90 | 100 | 100 | 80 | 90 | 100 | 90 | 90 | 100 | 100 | 90 | Post-emergence herbicidal activity in % against VIOTR [4]: 90%; Post-emergence herbicidal activity in % against ECHCG [16]: 90%; Pre-emergence herbicidal activity in % against HORMU [19]: 90%; Pre-emergence herbicidal activity in % against LOLRI [24]: 100%; Post-emergence herbicidal activity in % against AMARE [25]: 90% |
| CN(C)C(=O)[C@@H]1C[C@H](NC(=O)[C@@]2(C)CC(c3cc(F)cc(F)c3)=NO2)CO1 [Example I-25] | 100 | 100 | 100 | 80 | 90 | 80 | 90 | 100 | 90 | 100 | 80 | 100 | 80 | 100 | 90 | 80 | 90 | 100 | 90 | 90 | Pre-emergence herbicidal activity in % against LOLRI [24]: 100%; Post-emergence herbicidal activity in % against AMARE [25]: 80% |
